pEC50: −log10 of the molar value. Where two headings read alike, the source gives them in different places.
Assay: Cytotoxicity assay (CellTox Green Dye, IncuCyte)
Type: cell-based
Conditions: indicative, from AUC vs concentration (2-100 μM), read-out: Cytotoxic effect (EC50)
Experimental: Cell lines SH-SY5Y (ACC 209), DU145 (ACC 261), LNCaP (ACC 256) and NIH-3T3 (ACC 59) were purchased from DSMZ (Germany). MDA-MB-435S (HTB 129) and hTERT RPE-1 (CRL 4000) were obtained from ATCC (USA). Cell lines were cultured in their recommended media Supplemented with 10% or 15% FCS (PAA laboratories, Germany) at 37°C in humidified 5% CO2 atmosphere. All media were purchased from ThermoFisher Scientific (Waltham, Massachusetts, United States).
Cell proliferation, cytotoxicity and apoptosis were assessed in a 96-well microtiter plate by live-cell imaging using an IncuCyte Zoom System (Essen BioScience, UK). Cell proliferation was monitored in terms of cell confluency (%). Cell cytotoxicity was assessed by the CellTox Green Dye assay (Promega, Madison, Wisconsin, USA). The Incucyte Caspase-3/7 apoptosis assay (Essen BioScience, UK) was used to evaluate the effect of compound 5 on the apoptotic pathway. As negative controls media supplemented with 0.05% of DMSO were used.
Live-cell imaging data were collected from the IncuCyte Zoom software and analyzed using GraphPad Prism 5 software. Proliferation was measured as Phase Object Confluence (%), cytotoxicity and apoptosis were measured as Green Object Count (1/mm^2). All data are represented as mean S.E.M of n = 6 different wells.
The following concentrations of compound 5 were added to the different cell lines, 100 μM, 50 μM, 20 μM, 10 μM, 5 μM and 2 μM to assess its effect on cell proliferation (S1 Fig) and cytotoxicity (S2 Fig). Indicative IC50-values for the proliferation assays were obtained by plotting the areas under the curve (AUC × 10^3) against the tested compound 5 concentrations and by fitting the curve with a logistic dose-response equation. The EC50-values for the cytotoxicity assays were calculated correspondingly (S3 Fig). Although more data points would be necessary to calculate precise IC50 and EC50-values, it is clear that compound 5 inhibits the proliferation and induces cytotoxicity in all the tested cell lines in the low to middle micromolar range.

## COc1ccc(C(=O)NCCc2cc(Br)c(OCCCN(C)C)c(Br)c2)cc1Cl [Compound 5, 3-Chloro-N-[3,5-dibromo-4-[3-(dimethylamino)propoxy]phenethyl]-4-methoxybenzamide]
human, DU145 cells
  pEC50: 4.22
human, LNCaP cells
  pEC50: 4.39
human, MDA-MB-435S cells
  pEC50: 4.78
human, SH-SY5Y cells
  pEC50: 4.82
human, hTERT RPE-1 cells
  pEC50: 4.81
mouse, NIH-3T3 cells
  pEC50: 5.34

Source: article PMC5722316, “Synthesis of novel purpurealidin analogs and evaluation of their effect on the cancer-relevant potassium channel KV10.1” (PLoS ONE, 2017)
